Measurements: ChEMBL document CHEMBL4312017, “Synthesis and discovery of new compounds bearing coumarin scaffold for the treatment of pulmonary fibrosis” (Eur J Med Chem, 2020)
pIC50: −log10 of the molar value. The source made the active and inactive calls. The calls are words filed in the database; no cut-off is given here.

How the values were obtained:
[1] = Toxicity in BLM-induced C57BL/6 mouse pulmonary fibrosis model assessed as survival rate at 50 and 100 mg/kg, po observed for 28 days; assay type: organism-based; conditions: in vivo
[2] = tested on: NRK-49F; test: Inhibition of TGF-beta-induced collagen accumulation in rat NRK-49F cells at 10 uM incubated for 2 days by PSR staining based microscopic analysis relative to control; assay type: functional; conditions: 48 h
[3] = Cytotoxicity against rat NRK-49F cells assessed as cell viability at 10 uM incubated for 72 hrs by MTT assay; assay type: cell-based; conditions: read-out: Activity
[4] = tested on: NRK-49F; test: Inhibition of TGF-beta-induced collagen accumulation in rat NRK-49F cells incubated for 2 days by PSR staining based microscopic analysis; assay type: functional, cell-based
[5] = tested on: NIH3T3; test: Inhibition of TGF-beta-induced […] migration in mouse NIH/3T3 cells at 1 uM incubated for 24 hrs by Transwell assay; assay type: functional, cell-based
[6] = molecular target: T1, Transforming growth factor beta-1 proprotein/Smad3 (Rattus norvegicus) (UniProt P84025+P17246); test: Inhibition of TGFbeta/Smad3 pathway in rat NRK-49F cells assessed as reduction in TGF-beta1-induced COL1A1 expression in at 20 and 40 uM incubated for 24 hrs by Western blot analysis; assay type: cell-based
[7] = molecular target: T1, Transforming growth factor beta-1 proprotein/Smad3 (Rattus norvegicus); test: Inhibition of TGFbeta/Smad3 pathway in rat NRK-49F cells assessed as reduction in TGF-beta1-induced alpha-SMA expression in at 20 and 40 uM incubated for 24 hrs by Western blot analysis; assay type: cell-based
[8] = molecular target: T1, Transforming growth factor beta-1 proprotein/Smad3 (Rattus norvegicus); test: Inhibition of TGFbeta/Smad3 pathway in rat NRK-49F cells assessed as reduction in TGF-beta1-induced Smad3 phosphorylation at 20 and 40 uM incubated for 24 hrs by Western blot analysis; assay type: cell-based
[9] = Cmax in Sprague-Dawley rat at 5 mg/kg, iv measured upto 24 hrs; assay type: ADME, organism-based; design: dose 5 mg/kg, route intravenous; conditions: in vivo
[10] = Tmax in Sprague-Dawley rat at 5 mg/kg, iv measured upto 24 hrs; assay type: ADME, organism-based; conditions: in vivo
[11] = Half life in Sprague-Dawley rat at 5 mg/kg, iv measured upto 24 hrs; assay type: ADME, organism-based; conditions: in vivo
[12] = AUC (0 to t) in Sprague-Dawley rat at 5 mg/kg, iv measured upto 24 hrs; assay type: ADME, organism-based; design: dose 5 mg/kg, time < 24 hr, route intravenous; conditions: in vivo
[13] = Cmax in Sprague-Dawley rat at 10 mg/kg, po measured upto 24 hrs; assay type: ADME, organism-based; design: dose 10 mg/kg, route oral; conditions: in vivo
[14] = Tmax in Sprague-Dawley rat 10 mg/kg, po measured upto 24 hrs; assay type: ADME, organism-based; conditions: in vivo
[15] = Half life in Sprague-Dawley rat 10 mg/kg, po measured upto 24 hrs; assay type: ADME, organism-based; conditions: in vivo
[16] = AUC (0 to t) in Sprague-Dawley rat 10 mg/kg, po measured upto 24 hrs; assay type: ADME, organism-based; design: time < 24 hr, dose 10 mg/kg, route oral; conditions: in vivo
[17] = Oral bioavailability in Sprague-Dawley rat 10 mg/kg measured upto 24 hrs; assay type: ADME, organism-based; conditions: in vivo
[18] = Clearance in Sprague-Dawley rat 10 mg/kg, po measured upto 24 hrs; assay type: ADME, organism-based; conditions: in vivo
[19] = tested on: Mus musculus; test: Antifibrotic activity against C57BL/6 mouse pulmonary fibrosis model assessed as reduction in bleomycin-iduced hydroxyproline level at 50 mg/kg, po administered for 28 days and measured on day 14 and 28 by spectrophotometry; assay type: functional, organism-based
[20] = tested on: Mus musculus; test: Antifibrotic activity against C57BL/6 mouse pulmonary fibrosis model assessed as reduction in bleomycin-iduced hydroxyproline level at 100 mg/kg, po administered for 28 days and measured on day 14 and 28 by spectrophotometry; assay type: functional, organism-based
[21] = tested on: Mus musculus; test: Antifibrotic activity against BLM-induced C57BL/6 mouse pulmonary fibrosis model assessed as decrease in bronchiolar epithelial cell shedding at 50 mg/kg, po administered for 28 days and measured on day 14 and 28 by HE staining based fluorescence microscopy; assay type: functional, organism-based
[22] = tested on: Mus musculus; test: Antifibrotic activity against BLM-induced C57BL/6 mouse pulmonary fibrosis model assessed as decrease in bronchioles inflammatory cell infiltration at 50 mg/kg, po administered for 28 days and measured on day 14 and 28 by HE staining based fluorescence microscopy; assay type: functional, organism-based
[23] = tested on: Mus musculus; test: Antifibrotic activity against BLM-induced C57BL/6 mouse pulmonary fibrosis model assessed as decrease in perivascular inflammatory cell infiltration at 50 mg/kg, po administered for 28 days and measured on day 14 and 28 by HE staining based fluorescence microscopy; assay type: functional, organism-based
[24] = tested on: Mus musculus; test: Antifibrotic activity against BLM-induced C57BL/6 mouse pulmonary fibrosis model assessed as decrease in bronchial epithelial vacuolar degeneration at 50 mg/kg, po administered for 28 days and measured on day 14 and 28 by HE staining based fluorescence microscopy; assay type: functional, organism-based
[25] = tested on: Mus musculus; test: Antifibrotic activity against BLM-induced C57BL/6 mouse pulmonary fibrosis model assessed as decrease in bronchiolar epithelial cell shedding at 100 mg/kg, po administered for 28 days and measured on day 14 and 28 by HE staining based fluorescence microscopy; assay type: functional, organism-based
[26] = tested on: Mus musculus; test: Antifibrotic activity against BLM-induced C57BL/6 mouse pulmonary fibrosis model assessed as decrease in bronchioles inflammatory cell infiltration at 100 mg/kg, po administered for 28 days and measured on day 14 and 28 by HE staining based fluorescence microscopy; assay type: functional, organism-based
[27] = tested on: Mus musculus; test: Antifibrotic activity against BLM-induced C57BL/6 mouse pulmonary fibrosis model assessed as decrease in perivascular inflammatory cell infiltration at 100 mg/kg, po administered for 28 days and measured on day 14 and 28 by HE staining based fluorescence microscopy; assay type: functional, organism-based
[28] = tested on: Mus musculus; test: Antifibrotic activity against BLM-induced C57BL/6 mouse pulmonary fibrosis model assessed as decrease in bronchial epithelial vacuolar degeneration at 100 mg/kg, po administered for 28 days and measured on day 14 and 28 by HE staining based fluorescence microscopy; assay type: functional, organism-based
[29] = tested on: Mus musculus; test: Antifibrotic activity against BLM-induced C57BL/6 mouse pulmonary fibrosis model assessed as reduction in total white blood cells in BALF at 50 mg/kg, po administered for 28 days and measured on day 28; assay type: functional, organism-based
[30] = tested on: Mus musculus; test: Antifibrotic activity against BLM-induced C57BL/6 mouse pulmonary fibrosis model assessed as reduction in neutrophils in BALF at 50 mg/kg, po administered for 28 days and measured on day 28; assay type: functional, organism-based
[31] = tested on: Mus musculus; test: Antifibrotic activity against BLM-induced C57BL/6 mouse pulmonary fibrosis model assessed as reduction in lymphocytes in BALF at 50 mg/kg, po administered for 28 days and measured on day 28; assay type: functional, organism-based
[32] = tested on: Mus musculus; test: Antifibrotic activity against BLM-induced C57BL/6 mouse pulmonary fibrosis model assessed as reduction in total white blood cells in BALF at 100 mg/kg, po administered for 28 days and measured on day 28; assay type: functional, organism-based
[33] = tested on: Mus musculus; test: Antifibrotic activity against BLM-induced C57BL/6 mouse pulmonary fibrosis model assessed as reduction in neutrophils in BALF at 100 mg/kg, po administered for 28 days and measured on day 28; assay type: functional, organism-based
[34] = tested on: Mus musculus; test: Antifibrotic activity against BLM-induced C57BL/6 mouse pulmonary fibrosis model assessed as reduction in lymphocytes in BALF at 100 mg/kg, po administered for 28 days and measured on day 28; assay type: functional, organism-based
[35] = tested on: Mus musculus; test: Antifibrotic activity against BLM-induced C57BL/6 mouse pulmonary fibrosis model assessed as increase in time for reduction of alveoli at 50 mg/kg, po administered for 28 days and measured on day 14 and 28 by HE staining based fluorescence microscopy; assay type: functional, organism-based
[36] = tested on: Mus musculus; test: Antifibrotic activity against BLM-induced C57BL/6 mouse pulmonary fibrosis model assessed as decrease in destruction alveolar structure at 50 mg/kg, po administered for 28 days and measured on day 14 and 28 by HE staining based fluorescence microscopy; assay type: functional, organism-based
[37] = tested on: Mus musculus; test: Antifibrotic activity against BLM-induced C57BL/6 mouse pulmonary fibrosis model assessed as increase in time for reduction of alveoli at 100 mg/kg, po administered for 28 days and measured on day 14 and 28 by HE staining based fluorescence microscopy; assay type: functional, organism-based
[38] = tested on: Mus musculus; test: Antifibrotic activity against BLM-induced C57BL/6 mouse pulmonary fibrosis model assessed as decrease in destruction alveolar structure at 100 mg/kg, po administered for 28 days and measured on day 14 and 28 by HE staining based fluorescence microscopy; assay type: functional, organism-based

T1 sequence (P17246 whole entry, looked up): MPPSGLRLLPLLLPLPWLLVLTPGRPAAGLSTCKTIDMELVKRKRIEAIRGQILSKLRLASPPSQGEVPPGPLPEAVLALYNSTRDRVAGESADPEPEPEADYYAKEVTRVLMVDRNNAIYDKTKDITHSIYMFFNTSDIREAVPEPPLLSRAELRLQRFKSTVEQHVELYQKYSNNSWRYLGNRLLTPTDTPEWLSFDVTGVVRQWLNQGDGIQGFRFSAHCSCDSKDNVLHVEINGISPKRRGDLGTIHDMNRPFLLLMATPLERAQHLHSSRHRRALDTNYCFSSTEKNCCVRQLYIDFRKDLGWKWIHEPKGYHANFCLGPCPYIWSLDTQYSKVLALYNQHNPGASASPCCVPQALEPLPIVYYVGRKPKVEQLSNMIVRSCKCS
T1 sequence (P84025 whole entry, looked up): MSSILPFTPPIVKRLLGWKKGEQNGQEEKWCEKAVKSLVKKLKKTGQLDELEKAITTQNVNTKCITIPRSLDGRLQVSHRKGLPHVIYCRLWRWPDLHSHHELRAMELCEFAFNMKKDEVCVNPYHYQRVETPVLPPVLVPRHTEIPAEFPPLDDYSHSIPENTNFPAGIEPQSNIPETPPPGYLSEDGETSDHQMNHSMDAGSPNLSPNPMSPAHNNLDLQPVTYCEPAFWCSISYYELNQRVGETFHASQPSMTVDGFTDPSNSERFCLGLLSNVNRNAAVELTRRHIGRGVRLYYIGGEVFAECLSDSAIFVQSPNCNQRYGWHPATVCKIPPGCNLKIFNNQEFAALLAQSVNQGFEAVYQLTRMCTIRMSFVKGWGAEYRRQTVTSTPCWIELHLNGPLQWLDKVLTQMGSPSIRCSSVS

O=C(CN1CCCCC1)Nc1ccc(Oc2cc(=O)oc3ccccc23)cc1
survival at 672 h [1]: 90%
inhibition at 10 µM [2]: 85.1%
viability at 72 h, 10 µM [3]: 93.6%
inhibition [4]: Dose-dependent effect
pIC50 ([4]; 48 h): 5.37
inhibition [5]: Active
inhibition [6]: Active
inhibition [7]: Active
inhibition [8]: Active
Cmax [9]: 316 ng/mL
Tmax [10]: 2.68 h
half-life [11]: 7.42 h
AUC(0-t) at 24 h [12]: 1390 ng·h/mL
Cmax [13]: 74.7 ng/mL
Tmax [14]: 0.63 h
half-life [15]: 13.1 h
AUC(0-t) at 24 h [16]: 1100 ng·h/mL
bioavailability [17]: 39.9%
CL/F [18]: 108 mL/min/kg
Activity [19]: inactive
Activity [20]: Active
Activity [21]: Active
Activity [22]: Active
Activity [23]: Active
Activity [24]: Active
Activity [25]: Active
Activity [26]: Active
Activity [27]: Active
Activity [28]: Active
Activity [29]: Active
Activity [30]: Active
Activity [31]: Active
Activity [32]: Active
Activity [33]: Active
Activity [34]: Active
Activity [35]: Active
Activity [36]: Active
Activity [37]: Active
Activity [38]: Active
